# Measured values as given in US6420353B1, “Use of 7 α-substituted steroid to treat neuropsychiatric, immune or endocrine disorders” (BTG International Limited, priority 1996, dated 2002).
# Like-named read-outs stand apart in the source and are kept apart here.
# T1: Cyp7b (Mus musculus, UniProt Q60991)
# T1 sequence (Q60991 1-507): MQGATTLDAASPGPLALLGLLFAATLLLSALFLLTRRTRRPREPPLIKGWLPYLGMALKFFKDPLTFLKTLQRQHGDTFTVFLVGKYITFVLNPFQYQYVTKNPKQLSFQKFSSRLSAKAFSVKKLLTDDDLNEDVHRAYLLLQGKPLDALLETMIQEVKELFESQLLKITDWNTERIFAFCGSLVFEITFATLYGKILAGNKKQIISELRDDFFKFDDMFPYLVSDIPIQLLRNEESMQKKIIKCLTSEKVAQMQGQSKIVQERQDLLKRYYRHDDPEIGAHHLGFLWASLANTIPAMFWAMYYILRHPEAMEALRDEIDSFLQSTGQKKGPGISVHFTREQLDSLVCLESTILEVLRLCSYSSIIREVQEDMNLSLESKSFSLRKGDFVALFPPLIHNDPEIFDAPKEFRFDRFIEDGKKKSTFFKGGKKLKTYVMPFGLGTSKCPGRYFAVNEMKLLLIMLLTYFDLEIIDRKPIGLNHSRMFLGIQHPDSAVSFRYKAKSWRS
# T2: GR (Homo sapiens, UniProt P04150)
# T2 construct: expressed in transfected cells; host or cells: CHO cells, calcium phosphate transfection
# T2 sequence (P04150 1-777): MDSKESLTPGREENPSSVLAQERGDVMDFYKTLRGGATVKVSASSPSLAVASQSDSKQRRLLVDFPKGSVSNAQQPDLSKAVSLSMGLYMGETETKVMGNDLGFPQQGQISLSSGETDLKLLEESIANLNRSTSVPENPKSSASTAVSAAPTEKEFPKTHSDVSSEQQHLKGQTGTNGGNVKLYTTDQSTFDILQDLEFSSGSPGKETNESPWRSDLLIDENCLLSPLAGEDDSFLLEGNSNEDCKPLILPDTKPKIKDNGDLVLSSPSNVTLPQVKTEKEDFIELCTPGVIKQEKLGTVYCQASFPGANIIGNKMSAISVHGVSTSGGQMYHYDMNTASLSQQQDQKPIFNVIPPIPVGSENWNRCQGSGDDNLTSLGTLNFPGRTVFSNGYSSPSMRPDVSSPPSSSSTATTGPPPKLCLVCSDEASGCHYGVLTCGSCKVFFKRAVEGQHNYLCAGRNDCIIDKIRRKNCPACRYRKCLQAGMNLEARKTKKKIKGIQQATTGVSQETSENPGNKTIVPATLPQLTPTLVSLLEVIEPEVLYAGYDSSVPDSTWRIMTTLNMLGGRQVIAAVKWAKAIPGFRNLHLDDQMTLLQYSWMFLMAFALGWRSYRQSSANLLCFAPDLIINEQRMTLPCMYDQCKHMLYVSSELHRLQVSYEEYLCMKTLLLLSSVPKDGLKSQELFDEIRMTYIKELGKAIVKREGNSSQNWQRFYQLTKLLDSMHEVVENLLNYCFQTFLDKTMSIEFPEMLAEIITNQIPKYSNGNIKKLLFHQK
# Tests used:
# [1] = target: T1, Cyp7b; assay: Catalytic activity of Cyp7b expressed in mammalian cell lines (NADPH-dependent conversion, TLC)
# Excerpt: To examine the catalytic activity of the enzyme Cyp7b CDNAs were expressed in mammalian cell lines.
# [2] = target: T2, GR; assay: Cis-trans co-transfection assay (MMTV-LUC / pRShGR) in CHO cells; type: cell-based; settings: in presence of a GR activating concentration of corticosterone, FIG. 4
# Method: Chinese hamster ovary (CHO) cells were maintained and transfected in Dulbecco's modification of Eagle's medium (DMEM) supplemented with 15% foetal bovine serum, 100 IU/ml penicillin, 100 μg/ml streptomycin and […] L-glutamine (all Gibco BRL, Paisley, UK).
# 24 hours prior to transfection CHO cells were plated at a density of 3×10^5/60 mm dish (Costar UK). Cells were transfected by the clacium phosphate method. Briefly, 5 μg of MMTV-LUC and 1 μg of pRShGR or 5 μg of pSV2 as a control for transfection efficiency were made up to a total of 10 μg/plate of DNA with pGEM3. 30 μl of 2.5M CaCl2 was diluted ten-fold with sterile water and 300 μl was added to the DNA. […]
# The following day the cells were washed in PBS, lysed with 0.3 ml of lysis buffer (25 mM Tris-phosphate pH 7.8, 2 mM DTT, 1% Triton X-100 and 10% glycerol), scraped, centrifuged and the supernatant assayed in duplicate in a Berthold luminometer in a total volume of 250 μl, comprising 40 μl of cell extract, 5 μl of 30 mM ATP, 100 μl of assay buffer (20 mM tricine, […] (MgCO3)4.Mg(OH)2.%H2O, 2.67 mM MgSO4, Q1 mM EDTA, 33.3 mM DTT, 0.2 mg/ml coenzyme A) and 105 μl luciferin (Promega UK) injected to initiate the reaction. Light emission was measured over 10 seconds and relative light units/microgram of protein was calculated.
# [3] = target: T1, Cyp7b
# [4] = target: T1, Cyp7b; remark: listed apart in the source
# [5] = substrate: C[C@]12CC[C@H](O)CC1=CC[C@@H]1[C@@H]2CC[C@]2(C)C(=O)CC[C@@H]12; assay: purified protein, by the assay type; settings: other: cell extracts, NADPH-dependent conversion
# [6] = relative to DHEA and pregnenolone
# [7] = cell extracts, NADPH-dependent conversion
molecule,measurement,setting,value
"C[C@]12CC[C@H](O)C[C@@H]1CC[C@@H]1[C@@H]2CC[C@]2(C)[C@@H](O)CC[C@@H]12 [5α-androstane-3β, 17β-diol]",activity of the expressed enzyme against the steroid as substrate,[1]; [6],less active
"C[C@]12CC[C@H](O)CC1=C[C@@H](O)[C@@H]1[C@@H]2CC[C@]2(C)C(=O)CC[C@@H]12 [7HD, 7α-hydroxydehydroepi-androsterone]",antagonism of corticosterone effect in activating GR-mediated transcription (fold induction of luciferase),[2],acts as an antagonist
C[C@H](CCCC(C)(C)O)[C@H]1CC[C@H]2[C@@H]3CC=C4C[C@@H](O)CC[C@]4(C)[C@H]3CC[C@]12C [25-hydroxycholesterol],activity of the expressed enzyme against the steroid as substrate,[1],less active
same,conversion of labelled steroid by Cyp7b microsomes to a lower mobility form on TLC,[3],converted by the enzymes
"C[C@]12CC[C@H](O)CC1=CC[C@@H]1[C@@H]2CC[C@]2(C)C(=O)CC[C@@H]12 [DHEA, dehydroepiandrosterone]",antagonism of corticosterone effect in activating GR-mediated transcription (fold induction of luciferase),[2],not
same,conversion of labelled steroid by Cyp7b microsomes to a lower mobility form on TLC,[3],converted
C[C@]12C[C@H](O)[C@H]3[C@@H](CCC4=CC(=O)CC[C@@]43C)[C@@H]1CC[C@@H]2C(=O)CO [corticosterone],activity of the expressed enzyme against the steroid as substrate,[1],low to undetectable activity
same,conversion of labelled steroid by Cyp7b microsomes to a lower mobility form on TLC,[3],"at best inefficiently metabolised, if at all"
C[C@]12CCC(=O)C=C1CC[C@@H]1[C@@H]2[C@@H](O)C[C@@]2(C)[C@H]1CC[C@]2(O)C(=O)CO [cortisol],conversion of labelled steroid by Cyp7b microsomes to a lower mobility form on TLC,[3],"at best inefficiently metabolised, if at all"
"C[C@]12CC[C@@H]3c4ccc(O)cc4CC[C@H]3[C@@H]1CC[C@@H]2O [estradiol, 17β-estradiol]",activity of the expressed enzyme against the steroid as substrate,[1],less active
same,conversion of labelled steroid by Cyp7b microsomes to a lower mobility form on TLC,[3],converted by the enzymes
CC(=O)[C@H]1CC[C@H]2[C@@H]3CC=C4C[C@@H](O)CC[C@]4(C)[C@H]3CC[C@]12C [pregnenolone],Km,[1]; [7],3.6 µM
same,Vmax,[1]; [7],34 pmol/min/mg
same,conversion of labelled steroid by Cyp7b microsomes to a lower mobility form on TLC,[3],converted by the enzymes
same,release of 3H into the aqueous phase,[4],efficiently released
CC(=O)[C@H]1CC[C@H]2[C@@H]3CCC4=CC(=O)CC[C@]4(C)[C@H]3CC[C@]12C [progesterone],conversion of labelled steroid by Cyp7b microsomes to a lower mobility form on TLC,[3],"at best inefficiently metabolised, if at all"
C[C@]12CC[C@H]3[C@@H](CCC4=CC(=O)CC[C@@]43C)[C@@H]1CC[C@@H]2O [testosterone],activity of the expressed enzyme against the steroid as substrate,[1]; [6],low to undetectable activity
same,conversion of labelled steroid by Cyp7b microsomes to a lower mobility form on TLC,[3],"at best inefficiently metabolised, if at all"
Cyp7b (Mus musculus) (protein) MQGATTLDAASPGPLALLGLLFAATLLLSALFLLTRRTRRPREPPLIKGWLPYLGMALKFFKDPLTFLKTLQRQHGDTFTVFLVGKYITFVLNPFQYQYVTKNPKQLSFQKFSSRLSAKAFSVKKLLTDDDLNEDVHRAYLLLQGKPLDALLETMIQEVKELFESQLLKITDWNTERIFAFCGSLVFEITFATLYGKILAGNKKQIISELRDDFFKFDDMFPYLVSDIPIQLLRNEESMQKKIIKCLTSEKVAQMQGQSKIVQERQDLLKRYYRHDDPEIGAHHLGFLWASLANTIPAMFWAMYYILRHPEAMEALRDEIDSFLQSTGQKKGPGISVHFTREQLDSLVCLESTILEVLRLCSYSSIIREVQEDMNLSLESKSFSLRKGDFVALFPPLIHNDPEIFDAPKEFRFDRFIEDGKKKSTFFKGGKKLKTYVMPFGLGTSKCPGRYFAVNEMKLLLIMLLTYFDLEIIDRKPIGLNHSRMFLGIQHPDSAVSFRYKAKSWRS,Km,[5],13.3 µM
same,Vmax,[5],288 pmol/min/mg
